Laboratory results published in patent US5643784A, “Indan derivatives” (H, Lundbeck A/S, priority 1990, dated 1997).
pIC50: −log10 of the molar value.

Key:
dopamine D-2 receptors = biological target: T1, dopamine D-2 receptors (Rattus norvegicus, UniProt P61169); assay: Inhibition of 3H-spiperone binding to dopamine D-2 receptors in rat corpus striatum in vitro; conditions: 3H-spiperone 0.5 nM, rat corpus striatum, 37° C., 10 min; read-out: Receptor Binding; IC50 DA D-2 3H-Spi
T1 construct: striatal tissue is dissected and weighed; from tissue; host or cells: corpus striatum of male Wistar rats, crude membranes
Protocol: INHIBITION OF ^3 H-SPIPERONE BINDING TO DOPAMINE D-2 RECEPTORS IN RAT CORPUS STRIATUM IN VITRO
By this method the inhibition by drugs of the binding of ^3 H-spiperone (0.5 nM) to dopamine D-2 receptors in membranes from rat corpus striatum is determined in vitro.
Male Wistar (Mol:Wistar) rats (125-250 g) are sacrificed and striatal tissue is dissected and weighed. The tissue is homogenized (Ultra Turrax, 10 sec.) in 10 ml of ice-cold 50 mM K-phosphate buffer pH 7.4 (at 25° C.). The homogenate is centrifuged twice at 20,000 g for 10 min. at 4° C. with rehomogenization of the pellet in 10 ml ice-cold buffer. The final pellet is homogenized in 1300 vol (w/v) ice-cold buffer.
Incubation tubes kept on ice in triplicate receive 100 μl of drug solution in water (or water for total binding) and 4000 μl of tissue suspension (final tissue content corresponds to 3.08 mg original tissue). The binding experimental is initiated by addition of 100 μl of ^3 H-spiperone (final concentration 0.5 nM) and by placing the tubes in a 37° C. water bath. After incubation for 10 min. the samples are filtered under vacuum (0-50 mBar) through Whatman GF/F filters (25 mm). The tubes are rinsed with 5 ml ice-cold buffer which are then poured on the filters. Thereafter, the filters are washed with 2×5 ml of buffer. The filters are placed in counting vials and 4 ml of appropriate scintillation fluid (e.g. Picofluor ™15) are added. After shaking for 1 h and storage 2 hrs in the dark the content of radioactivity is determined by liquid scintillation counting. Specific binding is obtained by subtracting the nonspecific binding in the presence of 10 μM of 6,7-ADTN.
For determination of the inhibition of binding five concentrations of drugs covering 3 decades are used.
^3 H-Spiperone=[phenyl-4-^3 H]-spiperone from Amersham International plc. England, specific activity 15-25 Ci/mmol.

α1 adrenoceptors = assay: Inhibition of 3H-prazosin binding to α1 adrenoceptors in rat brain in vitro; conditions: for pIC50: 3H-Prazosin 0.25 nM, rat brain, 25° C., 20 min, read-out: Receptor Binding, IC50 α1 3H-Praz
5-HT2 receptors = biological target: T2, 5-HT2 receptors (Rattus norvegicus, UniProt P14842); assay: Inhibition of 3H-ketanserin binding to 5-HT2 receptors in rat cortex in vitro; conditions: for pIC50: 3H-Ketanserin 0.5 nM, rat cortex, 37° C., 30 min, read-out: Receptor Binding, IC50 5-HT2 3H-Ket
T2 construct: cortical tissue is dissected and weighed; from tissue; host or cells: cortex of male Wistar rats, crude membranes
T2 sequence (P14842 whole entry): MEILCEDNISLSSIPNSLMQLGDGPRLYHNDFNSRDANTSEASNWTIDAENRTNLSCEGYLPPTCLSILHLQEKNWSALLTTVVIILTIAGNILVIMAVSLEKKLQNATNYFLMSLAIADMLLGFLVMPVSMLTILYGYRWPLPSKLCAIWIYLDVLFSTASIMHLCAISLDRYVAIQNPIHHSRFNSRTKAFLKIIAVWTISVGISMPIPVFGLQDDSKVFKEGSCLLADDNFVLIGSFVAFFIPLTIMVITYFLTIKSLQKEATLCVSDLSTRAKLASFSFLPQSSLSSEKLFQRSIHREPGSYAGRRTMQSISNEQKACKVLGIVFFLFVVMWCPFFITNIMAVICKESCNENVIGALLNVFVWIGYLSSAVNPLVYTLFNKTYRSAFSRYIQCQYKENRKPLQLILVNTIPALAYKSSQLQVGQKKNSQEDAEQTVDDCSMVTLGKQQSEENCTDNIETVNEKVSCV

T1 sequence (P61169 whole entry): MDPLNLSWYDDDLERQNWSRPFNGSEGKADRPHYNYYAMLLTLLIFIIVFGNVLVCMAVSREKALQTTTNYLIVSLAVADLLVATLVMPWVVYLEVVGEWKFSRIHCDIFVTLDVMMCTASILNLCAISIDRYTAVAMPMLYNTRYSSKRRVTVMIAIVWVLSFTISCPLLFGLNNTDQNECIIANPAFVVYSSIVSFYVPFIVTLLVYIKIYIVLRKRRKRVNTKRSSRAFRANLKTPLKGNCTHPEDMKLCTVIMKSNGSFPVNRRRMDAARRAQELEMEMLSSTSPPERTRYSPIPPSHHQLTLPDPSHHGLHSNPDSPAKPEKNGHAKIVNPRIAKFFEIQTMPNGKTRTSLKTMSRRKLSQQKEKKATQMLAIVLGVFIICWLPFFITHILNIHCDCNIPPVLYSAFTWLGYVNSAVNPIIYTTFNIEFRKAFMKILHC

How did the pIC50 (dopamine D-2 receptors) turn out when CC(C)N1CCN(CCN2CCN([C@@H]3C[C@@H](c4cccc(F)c4)c4cc(Cl)ccc43)CC2)C1=O (relative stereo) [Compound 28, Trans-1-[2-[4-[5-chloro-3-(3-fluorophenyl)-2,3-dihydro-1H-inden-1-yl]piperazin-1-yl]ethyl]-3-isopropyl-2-imidazolidinone] was run?
The pIC50 was 6.31.

And the pIC50 (α1 adrenoceptors)?
The pIC50 was 6.01.

What about the pIC50 (5-HT2 receptors) of the same compound?
The pIC50 was 7.59.

With Fc1ccc([C@@H]2C[C@@H](N3CCN(CCN4CCNC4=S)CC3)c3ccc(Cl)cc32)cc1 (relative stereo) [Compound 31, Trans-1-[2-[4-[5-chloro-3-(4-fluorophenyl)-2,3-dihydro-1H-inden-1-yl]piperazin-1-yl]ethyl]-2-imidazolidinthione] as the compound, how does the pIC50 (dopamine D-2 receptors) read?
The pIC50 was 7.17.

And the pIC50 (α1 adrenoceptors)?
The pIC50 was 7.28.

What about the pIC50 (5-HT2 receptors) of the same compound?
Its pIC50 is 8.82.

How did the pIC50 (dopamine D-2 receptors) turn out when CC(C)N1CCN(CCN2CCN([C@@H]3C[C@@H](c4ccc(F)cc4)c4cc(Cl)ccc43)CC2)C1=S (relative stereo) [Compound 36, Trans-1-[2-[4-[5-chloro-3-(4-fluorophenyl)-2,3-dihydro-1-H-inden-1-yl]piperazin-1-yl]ethyl]-3-isopropyl-2-imidazolidinthione] was run?
Its pIC50 is 6.59.

And the pIC50 (α1 adrenoceptors)?
The pIC50 was 7.16.

And the pIC50 (5-HT2 receptors)?
Its pIC50 is 8.44.

How did the pIC50 (dopamine D-2 receptors) turn out when O=C1N(CCO)CCN1CCN1CCN([C@@H]2C[C@@H](c3ccc(F)cc3)c3cc(Cl)ccc32)CC1 (relative stereo) [Compound 37, Trans-1-[2-[4-[5-chloro-3-(4-fluorophenyl)-2,3-dihydro-1H-inden-1-yl]piperazin-1-yl]-ethyl]-3-(2-hydroxyethyl)-2-imidazolidinone] was run?
Its pIC50 is 6.49.

What about the pIC50 (α1 adrenoceptors) of the same compound?
Its pIC50 is 6.15.

What about the pIC50 (5-HT2 receptors) of the same compound?
The pIC50 was 8.21.

Which results are given for Fc1ccc([C@@H]2C[C@@H](N3CCN(CCN4CCCC4=S)CC3)c3ccc(Cl)cc32)cc1 (relative stereo) [Compound 38]?
pIC50 (dopamine D-2 receptors): 6.54; pIC50 (α1 adrenoceptors): 6.59; pIC50 (5-HT2 receptors): 8.28

Cc1ccc2c(c1)[C@H](N1CCN(CCN3CCNC3=O)CC1)C[C@H]2c1ccc(F)cc1 (relative stereo) [Compound 40, reference compound] was tested. Which pIC50 (dopamine D-2 receptors) did it give?
Its pIC50 is 7.37.

What about the pIC50 (α1 adrenoceptors) of the same compound?
The pIC50 was 7.92.

What about the pIC50 (5-HT2 receptors) of the same compound?
The pIC50 was 9.15.

Which results are given for O=C1NCCN1CCN1CCN([C@H]2C[C@H](c3ccc(F)cc3)c3cc(C(F)(F)F)ccc32)CC1 (single isomer, unassigned) [(+)-1]?
pIC50 (dopamine D-2 receptors): 6.54; pIC50 (α1 adrenoceptors): 6.48; pIC50 (5-HT2 receptors): 8.70

How did the pIC50 (dopamine D-2 receptors) turn out when Fc1ccc([C@H]2C[C@H](N3CCNCC3)c3ccc(Cl)cc32)cc1 (single isomer, unassigned) [(-)-10] was run?
Its pIC50 is 6.14.

And the pIC50 (α1 adrenoceptors)?
The pIC50 was 6.41.

What about the pIC50 (5-HT2 receptors) of the same compound?
The pIC50 was 7.82.

What does the source list for CC1(C)CNC(=O)N(CCN2CCN([C@@H]3C[C@@H](c4ccc(F)cc4)c4cc(Cl)ccc43)CC2)C1 (single isomer, unassigned) [Compound 35, (+)-Trans-1-[2-[4-[5-chloro-3-(4-fluorophenyl)-2,3-dihydro-1H-inden-1-yl]piperazin-1-yl]ethyl]-5,5-dimethyl-tetrahydro-2(1H)-pyrimidinone]?
pIC50 (dopamine D-2 receptors): 6.82; pIC50 (α1 adrenoceptors): 6.92; pIC50 (5-HT2 receptors): 8.32

Which results are given for O=C1NCCN1CCN1CCN([C@@H]2C[C@@H](c3ccc(F)cc3)c3ccccc32)CC1 [Irindalon, reference compound]?
pIC50 (dopamine D-2 receptors): 6.40; affinity to α1 adrenoceptors (in words) (α1 adrenoceptors): significant affinity to oh adrenoceptors; pIC50 (α1 adrenoceptors): 7.80; affinity to 5-HT2 receptors (in words) (5-HT2 receptors): high affinity to 5-HT2 receptors; pIC50 (5-HT2 receptors): 8.47
